Measured values taken from patent US20250090493A1, “THERAPEUTIC COMPOSITION DELIVERY DEVICE” (Helios Cardio Inc., priority 2021, published 2025).

Legend:
[1] = Amiodarone quantification in tissues by LC/MS after pericardial repair with amiodarone-soaked EBM patch, or IV amiodarone control, ovine model; assay type: in vivo; details: sheep
Excerpt: Specifically, EBM under the tradename CardiaMend™ was used. The device was approximately 1 mm thick (range 0.75-1.54 mm). An ovine model was used for a pericardial repair procedure. […] The EBM patch was then inserted through a hole cut through the pericardium via a mini-thoracotomy approach and secured with sutures at the margins of the pericardial defect. Following closure of the superficial muscle and skin, the animals were recovered, and housed until sacrifice at 3 days, 7 days, and 28 days. […] Following sacrifice, the repair site was explored, and the implant and heart were grossly evaluated for signs of inflammation, scarring, or fibrosis. Gross images were acquired.

[2] = as above; assay type: in vivo; details: sheep, 1000 mg/day, Maximum IV delivery-positive control Average, 1,000 mg/day via IV for 14 days

- Amiodarone concentration, Myocardium, Day 3 Average ([1]; EBM 7 cm by 10 cm soaked in 6 mL of 50 mg/mL amiodarone hydrochloride, pericardial patch, myocardium, day 3): 63.50 µg/g
- Amiodarone concentration, Left Atrium, EBM drug delivery Day 3-7 Average ([1]; EBM drug delivery, local single dose, left atrium, day 3-7): 96 µg/g
- Amiodarone concentration, Liver, EBM drug delivery Day 3-7 Average ([1]; EBM drug delivery, local single dose, liver, day 3-7): 1 µg/g
- Amiodarone concentration, Lung, EBM drug delivery Day 3-7 Average ([1]; EBM drug delivery, local single dose, lung, day 3-7): 4 µg/g
- Amiodarone concentration, Right Atrium, EBM drug delivery Day 3-7 Average ([1]; EBM drug delivery, local single dose, right atrium, day 3-7): 83 µg/g
- Amiodarone concentration, Ventricles, EBM drug delivery Day 3-7 Average ([1]; EBM drug delivery, local single dose, ventricles, day 3-7): 14 µg/g
- Amiodarone concentration, Liver, Day 28 Average ([1]; amiodarone-soaked EBM pericardial patch, liver, day 28): below the limit of detection
- concentration at 14 day ([2]; left atrium): 19000 ng/g
- concentration at 14 day ([2]; liver): 8000 ng/g
- concentration at 14 day ([2]; lung): 27000 ng/g
- concentration at 14 day ([2]; right atrium): 33000 ng/g
- concentration at 14 day ([2]; ventricles): 9000 ng/g
SMILES: CCCCc1oc2ccccc2c1C(=O)c1cc(I)c(OCCN(CC)CC)c(I)c1 [Amiodarone, amiodarone]
